Results from US20060183714A1, “3-Alpha-glycosyl alpha, alpha-trehalose compound, process for producing the same, and use” (priority 2003, published 2006).

Tests used:
[1] = reducibility of the saccharide product; format: physicochemical; conditions: product as obtained
[2] = aminocarbonyl (Maillard) reaction of the saccharide product; format: physicochemical; conditions: product as obtained

| reducibility [1] | aminocarbonyl reaction [2] | SMILES |
| --- | --- | --- |
| substantially no reducibility | hardly causes amino carbonyl reaction | OC[C@H]1O[C@H](OC[C@H]2O[C@H](O[C@@H]3[C@@H](O)[C@@H](O[C@H]4O[C@H](CO)[C@@H](O)[C@H](O)[C@H]4O)O[C@H](CO)[C@H]3O)[C@H](O)[C@@H](O)[C@@H]2O)[C@H](O)[C@@H](O)[C@@H]1O [Example 3, 3-α-isomaltosyl α,α-trehalose] |
| substantially no reducibility | hardly causes aminocarbonyl reaction | OC[C@H]1O[C@H](O[C@H]2O[C@H](CO)[C@@H](O)[C@H](O[C@H]3O[C@H](CO)[C@@H](O)[C@H](O)[C@H]3O)[C@H]2O)[C@H](O)[C@@H](O)[C@@H]1O [Example 5, 3-α-glucosyl α,α-trehalose] |
